How the values were obtained:
K562 = experiment: Cytotoxicity against human K562 cells assessed as cell viability after 72 hrs by celltiter-blue assay; format: functional, cell-based; details: K562, 72 h
A549 = experiment: Cytotoxicity against human A549 cells assessed as cell viability after 72 hrs by celltiter-blue assay; format: functional, cell-based; details: A549, 72 h
MCF7 = experiment: Cytotoxicity against human MCF7 cells assessed as cell viability after 72 hrs by celltiter-blue assay; format: functional, cell-based; details: MCF7, 72 h
[1] = Chemical stability of the compound in DMSO by NMR analysis; format: physicochemical

| Compound | IC50 (K562) [nM] | IC50 (A549) [nM] | IC50 (MCF7) [nM] | Stability [1] |
| --- | --- | --- | --- | --- |
| C/C=C(\C)[C@H]1OC(=O)[C@@H](C)NC(=O)[C@H]([C@@H](C)CC)NC(=O)CN(C)C(=O)[C@@H](Cc2ccccc2)N(C)C(=O)[C@@H](C)NC(=O)[C@@H](CC(C)C)OC(=O)/C(C)=C/C[C@H](OCSC)[C@@H]1C | 1190 | 4340 | > 10000 | – |
| C/C=C(\C)[C@H]1OC(=O)[C@@H](C)NC(=O)[C@H]([C@@H](C)CC)NC(=O)CN(C)C(=O)[C@@H](Cc2ccccc2)N(C)C(=O)[C@H](C)NC(=O)[C@@H](CC(C)C)OC(=O)/C(C)=C/C[C@H](O)[C@@H]1C | 0.0031 | 0.0021 | 0.22 | Stable |
| C/C=C(\C)[C@@H](OC(=O)[C@@H](C)N)[C@@H](C)C(C/C=C(\C)C(=O)O[C@H](CC(C)C)C(=O)N[C@@H](C)C(=O)N(C)[C@H](Cc1ccccc1)C(=O)N(C)CC(=O)N[C@H](C(=O)O)[C@@H](C)CC)OCSC (single isomer, unassigned) | > 10000 | > 10000 | > 10000 | – |
| CC[C@H](C)[C@H](NC(=O)CN(C)C(=O)[C@@H](Cc1ccccc1)N(C)C(=O)[C@H](C)NC(=O)[C@H](O)CC(C)C)C(=O)O | > 10000 | > 10000 | > 10000 | – |
| C/C=C(\C)[C@H]1OC(=O)[C@@H](C)NC(=O)[C@H]([C@@H](C)CC)NC(=O)CN(C)C(=O)[C@@H](Cc2ccccc2)N(C)C(=O)[C@@H](C)NC(=O)[C@@H](CC(C)C)OC(=O)/C(C)=C/C[C@H](O)[C@@H]1C | 584 | 1040 | 1640 | – |
| C/C=C(\C)[C@@H](O)[C@@H](C)[C@@H]1C/C=C(\C)C(=O)O[C@H](CC(C)C)C(=O)N[C@@H](C)C(=O)N(C)[C@H](Cc2ccc(Cl)cc2)C(=O)N(C)CC(=O)N[C@@H]([C@@H](C)CC)C(=O)N[C@H](C)C(=O)O1 | 0.000216 | 2e-05 | 0.025 | – |
| C/C=C(\C)[C@H]1OC(=O)[C@@H](C)NC(=O)[C@H]([C@@H](C)CC)NC(=O)CN(C)C(=O)[C@@H](Cc2ccccc2)N(C)C(=O)[C@H](C)NC(=O)[C@@H](CC(C)C)OC(=O)/C(C)=C/C[C@H](OC(=O)c2ccccc2)[C@@H]1C | 1.8 | 0.00058 | 2.9 | – |
| C/C=C(\C)[C@H]1OC(=O)[C@@H](C)NC(=O)[C@H]([C@@H](C)CC)NC(=O)CN(C)C(=O)[C@@H](Cc2ccc(Cl)cc2)N(C)C(=O)[C@H](C)NC(=O)[C@@H](CC(C)C)OC(=O)/C(C)=C/C[C@H](OCSC)[C@@H]1C | 7.1 | 0.73 | 6.5 | – |
| C/C=C(\C)[C@@H](O)[C@@H](C)[C@@H]1C/C=C(\C)C(=O)O[C@H](CC(C)C)C(=O)N[C@@H](C)C(=O)N(C)[C@H](Cc2ccccc2)C(=O)N(C)CC(=O)N[C@@H]([C@@H](C)CC)C(=O)N[C@H](C)C(=O)O1 | 0.012 | 0.0014 | 0.29 | Stable |
| C/C=C(\C)[C@@H](O)[C@@H](C)[C@@H]1C/C=C(\C)C(=O)O[C@H](CC(C)C)C(=O)N[C@H](C)C(=O)N(C)[C@H](Cc2ccccc2)C(=O)N(C)CC(=O)N[C@@H]([C@@H](C)CC)C(=O)N[C@H](C)C(=O)O1 | 925 | 1080 | 3690 | – |
| C/C=C(\C)[C@H]1OC(=O)[C@@H](C)NC(=O)[C@H]([C@@H](C)CC)NC(=O)CN(C)C(=O)[C@@H](Cc2ccc(Cl)cc2)N(C)C(=O)[C@H](C)NC(=O)[C@@H](CC(C)C)OC(=O)/C(C)=C/C[C@H](O)[C@@H]1C | 1.1e-05 | 1e-05 | 0.003 | – |
| C/C=C(\C)[C@H]1OC(=O)[C@@H](C)NC(=O)[C@H]([C@@H](C)CC)NC(=O)CN(C)C(=O)[C@@H](Cc2ccccc2)N(C)C(=O)[C@H](C)NC(=O)[C@@H](CC(C)C)OC(=O)/C(C)=C/C[C@H](OCSC)[C@@H]1C | 0.0063 | 0.00019 | 6.3 | – |

From ChEMBL document CHEMBL2203105, “Structure-related cytotoxic activity of derivatives from kulokekahilide-2, a cyclodepsipeptide in Hawaiian marine mollusk” (Bioorg Med Chem Lett, 2012)
